Here are results for one molecule from patent US20240182445A1 (ONO PHARMACEUTICAL CO., LTD., priority 2019, published 2024).

For orientation: CLint scaled means the rate of metabolic loss divided by the concentration. Read a high CLint scaled as rapid turnover. By IC50 is commonly meant the concentration that inhibits the measured activity by half.

A short description of data set [1]: Mouse hepatic microsomal intrinsic clearance. The format is in vitro ADME. Conditions: mouse hepatic microsomes. The protocol:
(§1) These assays were performed according to known methods as generally described in the following references: Conde-Ceide et al. ACS Med. Chem. Lett. 2015, 6, 716-720; Morris et al. J. Med. Chem. 2014, 57, 10192-10197; and Bubser et al. ACS Chem. Neurosci. 2014, 5, 920-942. Abbreviations which have been used in the descriptions of the following tables are; PPB is plasma protein binding; BHB is brain homogenate binding; and CLint is intrinsic clearance in hepatic microsomes.

A short description of data set [2]: Rat in vivo pharmacokinetics and brain distribution (i.v. cassette). Conditions: iv, rat i.v. cassette injection. The protocol:
Compound 12 was tested in several in vivo assays to investigate pharmacokinetics and brain distribution. Abbreviations which have been used in the descriptions of following tables are; CLp is plasma clearance; Vss is volume of distribution at steady state; Elim. t1/2 is half-life for elimination; Kp is tissue distribution partition coefficient; Kp,uu is unbound tissue distribution partition coefficient.

A further data set deals with T1, CYP1A2 (Homo sapiens, UniProt P05177).
T1 sequence (P05177 1-516): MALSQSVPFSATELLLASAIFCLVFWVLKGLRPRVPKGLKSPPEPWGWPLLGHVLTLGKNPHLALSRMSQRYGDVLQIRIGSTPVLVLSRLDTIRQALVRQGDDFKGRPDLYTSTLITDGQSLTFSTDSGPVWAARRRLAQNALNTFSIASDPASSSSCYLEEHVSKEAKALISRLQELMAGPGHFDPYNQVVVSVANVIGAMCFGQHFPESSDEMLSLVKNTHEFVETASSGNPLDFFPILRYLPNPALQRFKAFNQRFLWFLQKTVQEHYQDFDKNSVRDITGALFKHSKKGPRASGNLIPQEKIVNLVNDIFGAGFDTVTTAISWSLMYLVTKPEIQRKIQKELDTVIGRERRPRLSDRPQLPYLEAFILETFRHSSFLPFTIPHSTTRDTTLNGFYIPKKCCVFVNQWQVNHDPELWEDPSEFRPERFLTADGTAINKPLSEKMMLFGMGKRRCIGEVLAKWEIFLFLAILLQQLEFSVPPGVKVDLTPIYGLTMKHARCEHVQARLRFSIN
Put plainly: P450 inhibition 1A2. The class given is in vitro ADME. As for the experimental part:
as §1

The target of a further data set is CYP2C9 (Homo sapiens, UniProt P11712). Put plainly: P450 inhibition 2C9. The format is in vitro ADME. The protocol: as §1
Chain of CYP2C9 (P11712 whole entry): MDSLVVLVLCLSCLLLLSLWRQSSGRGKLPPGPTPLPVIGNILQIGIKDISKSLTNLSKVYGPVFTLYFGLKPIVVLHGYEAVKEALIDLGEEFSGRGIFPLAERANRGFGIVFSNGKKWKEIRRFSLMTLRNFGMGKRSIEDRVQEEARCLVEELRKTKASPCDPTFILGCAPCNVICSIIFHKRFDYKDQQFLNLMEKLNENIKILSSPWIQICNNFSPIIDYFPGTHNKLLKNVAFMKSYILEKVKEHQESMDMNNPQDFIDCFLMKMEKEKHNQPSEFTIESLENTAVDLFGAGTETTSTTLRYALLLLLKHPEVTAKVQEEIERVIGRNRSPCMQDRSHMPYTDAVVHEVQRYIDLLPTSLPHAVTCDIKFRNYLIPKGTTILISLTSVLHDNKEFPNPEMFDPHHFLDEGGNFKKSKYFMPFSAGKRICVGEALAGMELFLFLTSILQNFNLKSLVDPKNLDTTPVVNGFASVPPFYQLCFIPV
Data set [3] concerns plasma protein. Put plainly: Mouse plasma protein binding (PPB). The class given is in vitro ADME. The protocol:
as §1

A short description of data set [4]: Mouse brain homogenate binding (BHB). The class given is in vitro ADME. As for the experimental part:
as §1

The nature of data set [5]: Rat hepatic microsomal intrinsic clearance. The class given is in vitro ADME. Conditions: rat hepatic microsomes. As for the experimental part:
as §1

Another data set has as its target CYP3A4 (Homo sapiens, UniProt P08684). Put plainly: P450 inhibition 3A4. The format is in vitro ADME. As for the experimental part: as §1
Data set [6] deals with plasma protein. As to the kind of experiment: Human plasma protein binding (PPB). The format is in vitro ADME. The protocol: as §1
Data set [7] concerns plasma protein. Put plainly: Rat plasma protein binding (PPB). The class given is in vitro ADME. The protocol:
as §1

In the next data set the target is T2, human TREK-1 (Homo sapiens, UniProt O95069).
T2 construct: expressed in transfected cells
T2 sequence (O95069 1-426): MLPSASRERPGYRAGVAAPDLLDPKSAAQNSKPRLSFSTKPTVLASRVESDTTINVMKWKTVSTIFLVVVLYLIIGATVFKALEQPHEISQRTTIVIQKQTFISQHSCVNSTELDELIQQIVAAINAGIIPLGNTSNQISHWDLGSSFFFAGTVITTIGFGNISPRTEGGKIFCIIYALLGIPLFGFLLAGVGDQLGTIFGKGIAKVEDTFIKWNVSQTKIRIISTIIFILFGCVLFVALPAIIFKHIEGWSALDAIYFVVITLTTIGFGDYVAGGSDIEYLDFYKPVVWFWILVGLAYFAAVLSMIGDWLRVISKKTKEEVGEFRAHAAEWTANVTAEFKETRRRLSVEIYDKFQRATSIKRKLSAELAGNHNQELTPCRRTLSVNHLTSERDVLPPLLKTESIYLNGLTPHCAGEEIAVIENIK
Put plainly: TREK-1 Thallium (Tl+) flux assay, Method 1. The format is cell-based. Conditions: TREK-1 Thallium (Tl+) flux assay; values without footnote *12 are Method 1. Summed up: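 Readout: Thallos fluorescence ratio, taken 25 s post-thallium relative to the pre-thallium baseline average, then converted to % inhibition. Cells were CHO-K1 stably expressing human TREK-1, dye-loaded and exposed to test compound (vehicle 0.3% DMSO) for 10 min prior to thallium stimulation.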

SMILES strings stand for the structures.

Chain of CYP3A4 (P08684 whole entry): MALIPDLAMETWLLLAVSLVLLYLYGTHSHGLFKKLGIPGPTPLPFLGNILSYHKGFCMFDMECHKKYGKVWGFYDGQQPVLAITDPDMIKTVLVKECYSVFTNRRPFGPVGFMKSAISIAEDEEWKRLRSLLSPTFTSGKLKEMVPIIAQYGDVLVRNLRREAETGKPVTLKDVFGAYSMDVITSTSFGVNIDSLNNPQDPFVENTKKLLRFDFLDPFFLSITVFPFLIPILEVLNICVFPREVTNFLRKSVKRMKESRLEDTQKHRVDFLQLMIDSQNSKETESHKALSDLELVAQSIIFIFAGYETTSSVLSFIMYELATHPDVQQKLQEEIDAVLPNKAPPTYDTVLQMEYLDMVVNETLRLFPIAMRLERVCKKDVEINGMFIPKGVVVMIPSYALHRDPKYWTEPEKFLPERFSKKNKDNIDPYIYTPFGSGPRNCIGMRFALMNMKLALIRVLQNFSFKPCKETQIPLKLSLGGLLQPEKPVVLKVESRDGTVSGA

For the molecule `CC(=O)N[C@H]1CC[C@@H](n2ncc(Cl)c2C(=O)Nc2ncc(C#Cc3ccccc3)cc2C)CC1` [Compound 12, 1-(cis-4-acetamidocyclohexyl)-4-chloro-N-(3-methyl-5-(phenylethynyl)pyridin-2-yl)-1H-pyrazole-5-carboxamide], the CLint scaled is 103 mL/min/kg in [1] and 54 mL/min/kg in data set [5]. Also, the Kp uu in [2] (brain, unbound tissue distribution partition coefficient, read-out: Rat brain: plasma Kp, uu) is 0.19. For the same molecule, in data set [2] (plasma clearance, read-out: Rat CLp), the clearance is 28 mL/min/kg. Also, the half-life in data set [2] (plasma, half-life for elimination, read-out: Rat Elim. t1/2 (converted)) was 2 h. In addition, the Vd in [2] (plasma, volume of distribution at steady state, read-out: Rat Vss) is 4.7 L/kg. Also, the half-maximal inhibitory concentration (IC50) against CYP1A2 was 8.6 µM; against CYP2C9, 5.7 µM; against CYP3A4, greater than 30 µM; on human TREK-1, 0.13 µM. The “Mouse PPB (% bound)” value in the data set with plasma protein [3] is reported as 99.2 % bound. In addition, the “Mouse BHB (% bound)” value in data set [4] came to 99.7 % bound. The “Human PPB (% bound)” value in the data set with plasma protein [6] is 98.8 % bound. Moreover, the “Rat PPB (% bound)” value in the data set with plasma protein [7] is listed as 98.4 % bound.
